Experimental data reported in patent US12559495B2 (Agency for Science, Technology and Research, priority 2013, dated 2026).

System: HEK293-STF3A cells
Experiment: STF3A assay (luciferase reporter)
Type: cell-based
Details: Homo sapiens, 24 h, 1 day of treatment
Protocol: HEK293-STF cell line was modified from Human embryonic kidney cell line HEK293 transfected with the STF reporter. HEK293-STF3A cell line was further modified from HEK293-STF cell line to express Wnt3A. This cell line was used to identify compounds that regulate either early or late signalling components of the Wnt pathway. L-Wnt3A (ATCC, #CRL-2647) cell line was used for providing Wnt3A conditioned media. The three cell lines were grown in DMEM (Dulbecco's Modified Eagle Medium) with 10% FBS (fetal bovine serum) incubated in 37° C. with 5% CO2. 2×10^4 HEK293-STF3A cells in 75 μl culture media were seeded in each well of white 96 well plates (Greiner #655098) and incubated overnight at 37° C. 25 μl serially diluted compound was added to the cells to give final concentration of 50 μM to 1.5 nM. After 1 day of treatment, 100 μl of Steady-Glo® Luciferase Assay reagent (#E2520, Promega) was added to each well and incubated for 10 minutes at room temperature. Luminescence was measured using Tecan Safire2® plate reader.

For `Cn1c(=O)c2c(ncn2CC(=O)Nc2ccc(-c3cncs3)cc2)n(C)c1=O` [Compound 1, 2-(1,3-dimethyl-2,6-dioxo-2,3-dihydro-1H-purin-7(6H)-yl)-N-(4-(thiazol-5-yl)phenyl)acetamide], the IC50 was < 0.1 µM.

In the case of `Cn1c(=O)c2c(ncn2CC(=O)Nc2ccc(-c3ccccc3)s2)n(C)c1=O` [Compound 2, 2-(1,3-dimethyl-2,6-dioxo-2,3-dihydro-1H-purin-7(6H)-yl)-N-(5-phenylthiophen-2-yl)acetamide], the IC50 is reported as < 0.1 µM.

`Cn1c(=O)c2c(ncn2CC(=O)Nc2cc(-c3ccccc3)cs2)n(C)c1=O` [Compound 3, 2-(1,3-dimethyl-2,6-dioxo-2,3-dihydro-1H-purin-7(6H)-yl)-N-(4-phenylthiophen-2-yl)acetamide] was tested, and the IC50 was < 1 µM.

For `Cn1c(=O)c2c(ncn2CC(=O)Nc2ccc(-n3ccnc3)cc2)n(C)c1=O` [Compound 4, N-(4-(1H-imidazol-1-yl)phenyl)-2-(1,3-dimethyl-2,6-dioxo-2,3-dihydro-1H-purin-7(6H)-yl)acetamide], the IC50 was < 1 µM.

With `Cn1c(=O)c2c(ncn2CC(=O)Nc2ccc(-c3cccnn3)cc2)n(C)c1=O` [Compound 6, 2-(1,3-dimethyl-2,6-dioxo-2,3-dihydro-1H-purin-7(6H)-yl)-N-(4-(pyridazin-3-yl)phenyl)acetamide] the IC50 was < 1 µM.

`Cn1c(=O)c2c(ncn2CC(=O)Nc2ccc(-c3ncccn3)cc2)n(C)c1=O` [Compound 8, 2-(1,3-dimethyl-2,6-dioxo-2,3-dihydro-1H-purin-7(6H)-yl)-N-(4-(pyrimidin-2-yl)phenyl)acetamide] was tested, and the IC50 was < 5 µM.

`Cn1c(=O)c2c(ncn2CC(=O)Nc2ccc(-c3ccccn3)cn2)n(C)c1=O` [Compound 9, N-(2,3′-bipyridin-6′-yl)-2-(1,3-dimethyl-2,6-dioxo-2,3-dihydro-1H-purin-7(6H)-yl)acetamide] was tested, and the IC50 was < 0.1 µM.

`Cn1c(=O)c2c(ncn2CC(=O)Nc2ccc(-c3ccncc3)cc2)n(C)c1=O` [Compound 10, 2-(1,3-dimethyl-2,6-dioxo-2,3-dihydro-1H-purin-7(6H)-yl)-N-(4-(pyridin-4-yl)phenyl)acetamide] was tested, and the IC50 was < 1 µM.

For `Cn1c(=O)c2c(ncn2CC(=O)Nc2ccc(-c3ccc(F)cc3)nn2)n(C)c1=O` [Compound 11, 2-(1,3-dimethyl-2,6-dioxo-2,3-dihydro-1H-purin-7(6H)-yl)-N-(6-(4-fluorophenyl)pyridazin-3-yl)acetamide], the IC50 was < 0.1 µM.

`Cn1c(=O)c2c(ncn2CC(=O)Nc2ccc(-c3ccncc3)nn2)n(C)c1=O` [Compound 12, 2-(1,3-dimethyl-2,6-dioxo-2,3-dihydro-1H-purin-7(6H)-yl)-N-(6-(pyridin-4-yl)pyridazin-3-yl)acetamide] was tested, and the IC50 was < 5 µM.

With `Cc1cc(-c2ccccc2)ccc1NC(=O)Cn1cnc2c1c(=O)n(C)c(=O)n2C` [Compound 13, 2-(1,3-dimethyl-2,6-dioxo-2,3-dihydro-1H-purin-7(6H)-yl)-N-(3-methylbiphenyl-4-yl)acetamide] the IC50 was > 10 µM.

With `COc1cc(NC(=O)Cn2cnc3c2c(=O)n(C)c(=O)n3C)ccc1-c1ccccc1` [Compound 14, 2-(1,3-dimethyl-2,6-dioxo-2,3-dihydro-1H-purin-7(6H)-yl)-N-(2-methoxybiphenyl-4-yl)acetamide] the IC50 was < 1 µM.

For `C[C@H]1CN(C(=O)OC(C)(C)C)CCN1c1ccc(NC(=O)Cn2cnc3c2c(=O)n(C)c(=O)n3C)cc1` [Compound 15, (S)-tert-butyl 4-(4-(2-(1,3-dimethyl-2,6-dioxo-2,3-dihydro-1H-purin-7(6H)-yl)acetamido)phenyl)-3-methylpiperazine-1-carboxylate], the IC50 was < 0.1 µM.

`C[C@@H]1CN(C(=O)OC(C)(C)C)CCN1c1ccc(NC(=O)Cn2cnc3c2c(=O)n(C)c(=O)n3C)cc1` [Compound 16, (R)-tert-butyl 4-(4-(2-(1,3-dimethyl-2,6-dioxo-2,3-dihydro-1H-purin-7(6H)-yl)acetamido)phenyl)-3-methylpiperazine-1-carboxylate] was tested, and the IC50 was < 1 µM.

For `CN(C(=O)Cn1cnc2c1c(=O)n(C)c(=O)n2C)c1ccc(-c2ccsc2)cc1` [Compound 17, 2-(1,3-dimethyl-2,6-dioxo-2,3-dihydro-1H-purin-7(6H)-yl)-N-methyl-N-(4-(thiophen-3-yl)phenyl)acetamide], the IC50 was > 10 µM.

In the case of `Cn1c(=O)c2c(ncn2CC(=O)Nc2ccc(-c3ccsc3)cc2)n(C)c1=O` [Compound 18, 2-(1,3-dimethyl-2,6-dioxo-2,3-dihydro-1H-purin-7(6H)-yl)-N-(4-(thiophen-3-yl)phenyl)acetamide], the IC50 is reported as < 0.1 µM.

For `Cn1c(=O)c2c(ncn2CC(=O)Nc2ccc(-c3ccccc3)cn2)n(C)c1=O` [Compound 19, 2-(1,3-dimethyl-2,6-dioxo-2,3-dihydro-1H-purin-7(6H)-yl)-N-(5-phenylpyridin-2-yl)acetamide], the IC50 was < 0.1 µM.

With `Cn1c(=O)c2c(ncn2CC(=O)Nc2ccc(N3CCN(C(=O)OC(C)(C)C)CC3)cn2)n(C)c1=O` [Compound 20] the IC50 was < 0.1 µM.

With `Cn1c(=O)c2c(ncn2CC(=O)Nc2ccc(N3CCN(Cc4cccc(Cl)c4)CC3)cn2)n(C)c1=O` [Compound 21, N-(5-(4-(3-chlorobenzyl)piperazin-1-yl)pyridin-2-yl)-2-(1,3-dimethyl-2,6-dioxo-2,3-dihydro-1H-purin-7(6H)-yl)acetamide] the IC50 was < 0.1 µM.

With `Cn1c(=O)c2c(ncn2CC(=O)Nc2ccc(N3CCN(C(=O)OC(C)(C)C)CC3)cc2)n(C)c1=O` [Compound 22, tert-butyl 4-(4-(2-(1,3-dimethyl-2,6-dioxo-2,3-dihydro-1H-purin-7(6H)-yl)acetamido)phenyl)piperazine-1-carboxylate] the IC50 was < 0.1 µM.

`CC(C(=O)Nc1ccc(N2CCN(C(=O)OC(C)(C)C)CC2)cc1)n1cnc2c1c(=O)n(C)c(=O)n2C` (centres unmarked) [Compound 23, tert-butyl 4-(4-(2-(1,3-dimethyl-2,6-dioxo-2,3-dihydro-1H-purin-7(6H)-yl)propanamido)phenyl)piperazine-1-carboxylate] was tested, and the IC50 was < 0.1 µM.

`Cn1c(=O)c2c(ncn2CC(=O)Nc2ccc(-c3ncco3)cc2)n(C)c1=O` [Compound 24, 2-(1,3-dimethyl-2,6-dioxo-2,3-dihydro-1H-purin-7(6H)-yl)-N-(4-(oxazol-2-yl)phenyl)acetamide] was tested, and the IC50 was < 1 µM.

In the case of `Cn1c(=O)c2c(ncn2CC(=O)Nc2ccc(-c3ccccn3)cc2)n(C)c1=O` [Compound 25, 2-(1,3-dimethyl-2,6-dioxo-2,3-dihydro-1H-purin-7(6H)-yl)-N-(4-(pyridin-2-yl)phenyl)acetamide], the IC50 is reported as < 0.1 µM.

In the case of `Cn1c(=O)c2c(ncn2CC(=O)Nc2ccc(-c3cccnc3)cc2)n(C)c1=O` [Compound 26, 2-(1,3-dimethyl-2,6-dioxo-2,3-dihydro-1H-purin-7(6H)-yl)-N-(4-(pyridin-3-yl)phenyl)acetamide], the IC50 is reported as < 0.1 µM.

In the case of `COc1ccccc1-c1ccc(NC(=O)Cn2cnc3c2c(=O)n(C)c(=O)n3C)cc1` [Compound 27, 2-(1,3-dimethyl-2,6-dioxo-2,3-dihydro-1H-purin-7(6H)-yl)-N-(2′-methoxybiphenyl-4-yl)acetamide], the IC50 is reported as > 10 µM.

In the case of `Cc1ccccc1-c1ccc(NC(=O)Cn2cnc3c2c(=O)n(C)c(=O)n3C)cc1` [Compound 28, 2-(1,3-dimethyl-2,6-dioxo-2,3-dihydro-1H-purin-7(6H)-yl)-N-(2′-methylbiphenyl-4-yl)acetamide], the IC50 is reported as > 10 µM.

In the case of `Cc1cccc(-c2ccc(NC(=O)Cn3cnc4c3c(=O)n(C)c(=O)n4C)cc2)c1` [Compound 29, 2-(1,3-dimethyl-2,6-dioxo-2,3-dihydro-1H-purin-7(6H)-yl)-N-(3′-methylbiphenyl-4-yl)acetamide], the IC50 is reported as < 0.1 µM.

In the case of `Cc1ccc(-c2ccc(NC(=O)Cn3cnc4c3c(=O)n(C)c(=O)n4C)cc2)cc1` [Compound 30, 2-(1,3-dimethyl-2,6-dioxo-2,3-dihydro-1H-purin-7(6H)-yl)-N-(4′-methylbiphenyl-4-yl)acetamide], the IC50 is reported as < 0.1 µM.

In the case of `Cn1c(=O)c2c(ncn2CC(=O)Nc2ccc(-c3ccc(OC(F)(F)F)cc3)cc2)n(C)c1=O` [Compound 31, 2-(1,3-dimethyl-2,6-dioxo-2,3-dihydro-1H-purin-7(6H)-yl)-N-(4′-(trifluoromethoxy)biphenyl-4-yl)acetamide], the IC50 is reported as < 5 µM.

In the case of `COc1cccc(-c2ccc(NC(=O)Cn3cnc4c3c(=O)n(C)c(=O)n4C)cc2)c1` [Compound 32, 2-(1,3-dimethyl-2,6-dioxo-2,3-dihydro-1H-purin-7(6H)-yl)-N-(3′-methoxybiphenyl-4-yl)acetamide], the IC50 is reported as < 0.1 µM.

`Cc1nc(-c2ccc(NC(=O)Cn3cnc4c3c(=O)n(C)c(=O)n4C)cc2)cs1` [Compound 33, 2-(1,3-dimethyl-2,6-dioxo-2,3-dihydro-1H-purin-7(6H)-yl)-N-(4-(2-methylthiazol-4-yl)phenyl)acetamide] was tested, and the IC50 was < 0.1 µM.

With `Cn1c(=O)c2c(ncn2CC(=O)Nc2ccc(-c3nccs3)cc2)n(C)c1=O` [Compound 34, 2-(1,3-dimethyl-2,6-dioxo-2,3-dihydro-1H-purin-7(6H)-yl)-N-(4-(thiazol-2-yl)phenyl)acetamide] the IC50 was < 0.1 µM.

With `Cn1c(=O)c2c(ncn2CC(=O)Nc2ccc(-c3ccccc3)nc2)n(C)c1=O` [Compound 35, 2-(1,3-dimethyl-2,6-dioxo-2,3-dihydro-1H-purin-7(6H)-yl)-N-(6-phenylpyridin-3-yl)acetamide] the IC50 was < 0.1 µM.

`Cn1c(=O)c2c(ncn2CC(=O)Nc2cnc(-c3ccccc3)cn2)n(C)c1=O` [Compound 36, 2-(1,3-dimethyl-2,6-dioxo-2,3-dihydro-1H-purin-7(6H)-yl)-N-(5-phenylpyrazin-2-yl)acetamide] was tested, and the IC50 was < 0.1 µM.

For `Cn1c(=O)c2c(ncn2CC(=O)Nc2ccc(-c3ccc(F)cc3)cn2)n(C)c1=O` [Compound 37, 2-(1,3-dimethyl-2,6-dioxo-2,3-dihydro-1H-purin-7(6H)-yl)-N-(5-(4-fluorophenyl)pyridin-2-yl)acetamide], the IC50 was < 0.1 µM.
